# Measurements from ChEMBL document CHEMBL1201862, “PubChem BioAssay data set” (2004).
#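 Briefly, cells in 96-well plates were exposed to five compound concentrations for 48 h, and endpoints were estimated by linear interpolation. The concentration for 50% growth inhibition is given as GI50.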 Activity calls are given as the source filed them. Cut-off read from the data, not from the text of the source: active = GI50 up to about 1.1 µM and inactive = higher.
# What was measured:
# Test in all cases: NCI anticancer screen, dose series, 48 h
# 786-0 = system: 786-0
# A498 = system: A498
# A549 = system: A549
# ACHN = system: ACHN
# BT-549 = system: BT-549
# CAKI-1 = system: CAKI-1
# CCRF-CEM = system: CCRF-CEM
# COLO 205 = system: COLO 205
# DU-145 = system: DU-145
# EKVX = system: EKVX
# HCC 2998 = system: HCC 2998
# HCT-116 = system: HCT-116
# HCT-15 = system: HCT-15
# HL-60 = system: HL-60
# HOP-62 = system: HOP-62
# HOP-92 = system: HOP-92
# HT-29 = system: HT-29
# Hs-578T = system: Hs-578T
# IGROV-1 = system: IGROV-1
# K562 = system: K562
# KM12 = system: KM12
# LOX IMVI = system: LOX IMVI
# M14 = system: M14
# MCF7 = system: MCF7
# MDA-MB-231 = system: MDA-MB-231
# MDA-MB-435 = system: MDA-MB-435
# MDA-N = system: MDA-N
# MOLT-4 = system: MOLT-4
# Malme-3M = system: Malme-3M
# NCI-H226 = system: NCI-H226
# NCI-H23 = system: NCI-H23
# NCI-H460 = system: NCI-H460
# NCI-H522 = system: NCI-H522
# NCI/ADR-RES = system: NCI/ADR-RES
# OVCAR-3 = system: OVCAR-3
# OVCAR-4 = system: OVCAR-4
# OVCAR-5 = system: OVCAR-5
# OVCAR-8 = system: OVCAR-8
# PC-3 = system: PC-3
# RPMI-8226 = system: RPMI-8226
# RXF 393 = system: RXF 393
# SF-268 = system: SF-268
# SF-295 = system: SF-295
# SF-539 = system: SF-539
# SK-MEL-28 = system: SK-MEL-28
# SK-MEL-2 = system: SK-MEL-2
# SK-MEL-5 = system: SK-MEL-5
# SK-OV-3 = system: SK-OV-3
# SN12C = system: SN12C
# SNB-19 = system: SNB-19
# SNB-75 = system: SNB-75
# SR = system: SR
# SW-620 = system: SW-620
# T47D = system: T47D
# TK-10 = system: TK-10
# U-251 = system: U-251
# UACC-257 = system: UACC-257
# UACC-62 = system: UACC-62
# UO-31 = system: UO-31
smiles,measurement,setting,value
CCCC(=O)OCC1OC(n2cc(F)c(=O)[nH]c2=O)CC1O (configuration not stated),GI50,786-0,337 nM (active)
same,GI50,A498,489 nM (active)
same,GI50,A549,48.9 nM (active)
same,GI50,ACHN,39.5 nM (active)
same,GI50,BT-549,929 nM (active)
same,GI50,CAKI-1,40.2 nM (active)
same,GI50,CCRF-CEM,35.6 nM (active)
same,GI50,COLO 205,2220 nM (inactive)
same,GI50,DU-145,255 nM (active)
same,GI50,EKVX,> 10000 nM (inactive)
same,GI50,HCC 2998,3.81 nM (active)
same,GI50,HCT-116,614 nM (active)
same,GI50,HCT-15,> 7530 nM
same,GI50,HL-60,614 nM (active)
same,GI50,HOP-62,55.3 nM (active)
same,GI50,HOP-92,1100 nM (active)
same,GI50,HT-29,721 nM (active)
same,GI50,Hs-578T,3850 nM (inactive)
same,GI50,IGROV-1,> 8090 nM (inactive)
same,GI50,K562,1870 nM (inactive)
same,GI50,KM12,> 10000 nM (inactive)
same,GI50,LOX IMVI,30.3 nM (active)
same,GI50,M14,314 nM (active)
same,GI50,MCF7,4.63 nM (active)
same,GI50,MDA-MB-231,> 9140 nM (inactive)
same,GI50,MDA-MB-435,> 7980 nM (inactive)
same,GI50,MDA-N,1450 nM (inactive)
same,GI50,MOLT-4,> 8550 nM (inactive)
same,GI50,Malme-3M,> 5060 nM (inactive)
same,GI50,NCI-H226,> 7570 nM (inactive)
same,GI50,NCI-H23,127 nM (active)
same,GI50,NCI-H460,22.1 nM (active)
same,GI50,NCI-H522,3840 nM (inactive)
same,GI50,NCI/ADR-RES,1700 nM (inactive)
same,GI50,OVCAR-3,> 2110 nM (inactive)
same,GI50,OVCAR-4,> 10000 nM (inactive)
same,GI50,OVCAR-5,> 8110 nM (inactive)
same,GI50,OVCAR-8,118 nM (active)
same,GI50,PC-3,746 nM (active)
same,GI50,RPMI-8226,429 nM (active)
same,GI50,RXF 393,> 10000 nM (inactive)
same,GI50,SF-268,30.6 nM (active)
same,GI50,SF-295,73.1 nM (active)
same,GI50,SF-539,4.32 nM (active)
same,GI50,SK-MEL-28,> 6780 nM (inactive)
same,GI50,SK-MEL-2,> 9640 nM (inactive)
same,GI50,SK-MEL-5,221 nM (active)
same,GI50,SK-OV-3,> 4140 nM (inactive)
same,GI50,SN12C,181 nM (active)
same,GI50,SNB-19,> 10000 nM (inactive)
same,GI50,SNB-75,87.1 nM (active)
same,GI50,SR,26.5 nM (active)
same,GI50,SW-620,> 10000 nM (inactive)
same,GI50,T47D,6440 nM (inactive)
same,GI50,TK-10,1260 nM (inactive)
same,GI50,U-251,1790 nM (inactive)
same,GI50,UACC-257,4100 nM (inactive)
same,GI50,UACC-62,126 nM (active)
same,GI50,UO-31,94 nM (active)
CCN(CC)/[N+]([O-])=N/OCOC,GI50,786-0,> 100000 nM (inactive)
same,GI50,A498,> 100000 nM (inactive)
same,GI50,A549,> 100000 nM (inactive)
same,GI50,ACHN,> 100000 nM (inactive)
same,GI50,BT-549,> 100000 nM (inactive)
same,GI50,CAKI-1,> 100000 nM (inactive)
same,GI50,CCRF-CEM,> 100000 nM (inactive)
same,GI50,COLO 205,> 100000 nM (inactive)
same,GI50,DU-145,> 100000 nM (inactive)
same,GI50,EKVX,> 100000 nM (inactive)
same,GI50,HCC 2998,> 100000 nM (inactive)
same,GI50,HCT-116,> 100000 nM (inactive)
same,GI50,HCT-15,> 100000 nM
same,GI50,HL-60,> 100000 nM (inactive)
same,GI50,HOP-62,> 100000 nM (inactive)
same,GI50,HOP-92,> 100000 nM (inactive)
same,GI50,HT-29,> 100000 nM (inactive)
same,GI50,Hs-578T,> 100000 nM (inactive)
same,GI50,IGROV-1,> 100000 nM (inactive)
same,GI50,K562,> 100000 nM (inactive)
same,GI50,KM12,> 100000 nM (inactive)
same,GI50,LOX IMVI,> 100000 nM (inactive)
same,GI50,M14,> 100000 nM (inactive)
same,GI50,MCF7,> 100000 nM (inactive)
same,GI50,MDA-MB-231,> 100000 nM (inactive)
same,GI50,MDA-MB-435,> 100000 nM (inactive)
same,GI50,MDA-N,> 100000 nM (inactive)
same,GI50,MOLT-4,> 100000 nM (inactive)
same,GI50,Malme-3M,> 100000 nM (inactive)
same,GI50,NCI-H226,> 100000 nM (inactive)
same,GI50,NCI-H23,> 100000 nM (inactive)
same,GI50,NCI-H460,> 100000 nM (inactive)
same,GI50,NCI-H522,> 100000 nM (inactive)
same,GI50,NCI/ADR-RES,> 100000 nM (inactive)
same,GI50,OVCAR-3,> 100000 nM (inactive)
same,GI50,OVCAR-4,> 100000 nM (inactive)
same,GI50,OVCAR-5,> 100000 nM (inactive)
same,GI50,OVCAR-8,> 100000 nM (inactive)
same,GI50,PC-3,> 100000 nM (inactive)
same,GI50,RPMI-8226,> 100000 nM (inactive)
same,GI50,RXF 393,> 100000 nM (inactive)
same,GI50,SF-268,> 100000 nM (inactive)
same,GI50,SF-295,> 100000 nM (inactive)
same,GI50,SF-539,> 100000 nM (inactive)
same,GI50,SK-MEL-28,> 100000 nM (inactive)
same,GI50,SK-MEL-2,> 100000 nM (inactive)
same,GI50,SK-MEL-5,> 100000 nM (inactive)
same,GI50,SK-OV-3,> 100000 nM (inactive)
same,GI50,SN12C,> 100000 nM (inactive)
same,GI50,SNB-19,> 100000 nM (inactive)
same,GI50,SNB-75,> 100000 nM (inactive)
same,GI50,SR,> 100000 nM (inactive)
same,GI50,SW-620,> 100000 nM (inactive)
same,GI50,T47D,> 100000 nM (inactive)
same,GI50,TK-10,> 100000 nM (inactive)
same,GI50,U-251,> 100000 nM (inactive)
same,GI50,UACC-257,> 100000 nM (inactive)
same,GI50,UACC-62,> 100000 nM (inactive)
same,GI50,UO-31,> 100000 nM (inactive)
C/C=C/[C@H]1O[C@@](O)([C@@H](C)[C@H](O)[C@H](C)[C@H]2OC(=O)/C(OC)=C/C(C)=C/[C@@H](C)[C@@H](O)[C@@H](CC)[C@@H](O)[C@H](C)C/C(C)=C/C=C/[C@@H]2OC)C[C@H](OC2CC(O)C(O)C(C)O2)[C@@H]1C (some centres not stated),GI50,786-0,< 7.5 nM (active)
same,GI50,A498,5010 nM (inactive)
same,GI50,A549,< 7.5 nM (active)
same,GI50,ACHN,< 7.5 nM (active)
same,GI50,BT-549,< 7.5 nM (active)
same,GI50,CAKI-1,< 7.5 nM (active)
same,GI50,CCRF-CEM,< 7.5 nM (active)
same,GI50,COLO 205,< 7.5 nM (active)
same,GI50,DU-145,256 nM (active)
same,GI50,EKVX,< 7.5 nM (active)
same,GI50,HCC 2998,< 7.5 nM (active)
same,GI50,HCT-116,< 7.5 nM (active)
same,GI50,HCT-15,< 7.5 nM
same,GI50,HL-60,< 7.5 nM (active)
same,GI50,HOP-62,< 7.5 nM (active)
same,GI50,HOP-92,190 nM (active)
same,GI50,HT-29,< 7.5 nM (active)
same,GI50,Hs-578T,< 7.5 nM (active)
same,GI50,IGROV-1,< 7.5 nM (active)
same,GI50,K562,< 7.5 nM (active)
same,GI50,KM12,< 7.5 nM (active)
same,GI50,LOX IMVI,< 7.5 nM (active)
same,GI50,M14,< 7.5 nM (active)
same,GI50,MCF7,< 7.5 nM (active)
same,GI50,MDA-MB-231,< 7.5 nM (active)
same,GI50,MDA-MB-435,< 7.5 nM (active)
same,GI50,MDA-N,< 7.5 nM (active)
same,GI50,MOLT-4,< 7.5 nM (active)
same,GI50,Malme-3M,< 7.5 nM (active)
same,GI50,NCI-H226,< 7.5 nM (active)
same,GI50,NCI-H23,406 nM (active)
same,GI50,NCI-H460,< 7.5 nM (active)
same,GI50,NCI-H522,< 7.5 nM (active)
same,GI50,NCI/ADR-RES,< 7.5 nM (active)
same,GI50,OVCAR-3,< 7.5 nM (active)
same,GI50,OVCAR-4,244 nM (active)
same,GI50,OVCAR-5,3490 nM (inactive)
same,GI50,OVCAR-8,< 7.5 nM (active)
same,GI50,PC-3,< 7.5 nM (active)
same,GI50,RPMI-8226,< 7.5 nM (active)
same,GI50,RXF 393,121 nM (active)
same,GI50,SF-268,< 7.5 nM (active)
same,GI50,SF-295,< 7.5 nM (active)
same,GI50,SF-539,< 7.5 nM (active)
same,GI50,SK-MEL-28,114 nM (active)
same,GI50,SK-MEL-2,< 7.5 nM (active)
same,GI50,SK-MEL-5,< 7.5 nM (active)
same,GI50,SK-OV-3,8040 nM (inactive)
same,GI50,SN12C,7780 nM (inactive)
same,GI50,SNB-19,3420 nM (inactive)
same,GI50,SNB-75,8590 nM (inactive)
same,GI50,SR,< 7.5 nM (active)
same,GI50,SW-620,< 7.5 nM (active)
same,GI50,T47D,< 7.5 nM (active)
same,GI50,TK-10,9480 nM (inactive)
same,GI50,U-251,< 7.5 nM (active)
same,GI50,UACC-257,< 7.5 nM (active)
same,GI50,UACC-62,< 7.5 nM (active)
same,GI50,UO-31,< 7.5 nM (active)
